This passage reports IC50 results from ChEMBL document CHEMBL1132606, “Use of a pharmacophore model for the design of EGFR tyrosine kinase inhibitors: isoflavones and 3-phenyl-4(1H)-quinolones” (J Med Chem, 1999).

pIC50: −log10 of the molar value.

For assay [1], the target named is Proto-oncogene tyrosine-protein kinase Src (Homo sapiens, UniProt P12931). Briefly: Inhibition of p60 c-Src tyrosine kinase.
Assay [2] concerns the target Tyrosine-protein kinase ABL (Homo sapiens, UniProt P00519+P42684). Briefly: Inhibition of v-Abl tyrosine kinase. The format is protein assay.
The target of assay [3] is T1, Epidermal growth factor receptor (Homo sapiens, UniProt P00533). Briefly: Inhibition of Epidermal growth factor receptor.
T1 sequence (P00533 whole entry): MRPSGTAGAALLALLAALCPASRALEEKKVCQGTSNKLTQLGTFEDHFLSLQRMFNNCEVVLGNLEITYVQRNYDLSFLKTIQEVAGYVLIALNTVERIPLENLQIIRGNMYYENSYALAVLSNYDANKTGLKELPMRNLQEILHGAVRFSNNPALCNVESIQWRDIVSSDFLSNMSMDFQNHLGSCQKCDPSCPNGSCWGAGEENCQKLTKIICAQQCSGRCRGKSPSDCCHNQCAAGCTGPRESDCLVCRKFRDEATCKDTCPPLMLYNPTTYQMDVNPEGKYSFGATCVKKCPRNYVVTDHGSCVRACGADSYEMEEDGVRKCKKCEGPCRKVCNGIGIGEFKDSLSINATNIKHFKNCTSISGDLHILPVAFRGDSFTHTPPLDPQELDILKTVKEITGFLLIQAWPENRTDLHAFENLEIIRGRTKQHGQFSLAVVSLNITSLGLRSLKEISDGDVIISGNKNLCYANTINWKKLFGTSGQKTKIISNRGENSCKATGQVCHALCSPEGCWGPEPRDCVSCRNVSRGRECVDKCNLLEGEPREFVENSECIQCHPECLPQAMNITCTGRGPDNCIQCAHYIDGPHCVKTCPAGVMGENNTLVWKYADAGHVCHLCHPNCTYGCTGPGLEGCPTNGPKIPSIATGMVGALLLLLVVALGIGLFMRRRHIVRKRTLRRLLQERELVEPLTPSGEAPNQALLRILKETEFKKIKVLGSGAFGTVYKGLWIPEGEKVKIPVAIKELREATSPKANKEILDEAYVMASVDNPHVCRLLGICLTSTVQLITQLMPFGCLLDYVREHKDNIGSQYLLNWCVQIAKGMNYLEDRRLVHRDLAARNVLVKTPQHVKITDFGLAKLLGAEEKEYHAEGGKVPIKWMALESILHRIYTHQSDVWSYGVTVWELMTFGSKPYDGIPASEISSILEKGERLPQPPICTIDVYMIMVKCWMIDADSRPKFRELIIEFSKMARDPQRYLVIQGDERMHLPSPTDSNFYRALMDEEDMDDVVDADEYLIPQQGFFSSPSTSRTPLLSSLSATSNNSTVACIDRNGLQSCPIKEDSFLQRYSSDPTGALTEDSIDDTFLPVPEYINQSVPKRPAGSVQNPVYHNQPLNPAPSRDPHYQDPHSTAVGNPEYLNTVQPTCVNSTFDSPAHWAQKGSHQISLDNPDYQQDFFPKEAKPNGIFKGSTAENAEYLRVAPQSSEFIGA
Assay [4] has as its target T1, Epidermal growth factor receptor. Briefly: Inhibition of Epidermal growth factor receptor-dependent phosphorylation.
For assay [5], the target named is Platelet-derived growth factor receptor (Homo sapiens, UniProt P09619+P16234). Put plainly: Inhibition of Platelet-derived growth factor receptor-dependent phosphorylation. The format is protein-complex assay.
For assay [6], the target named is Protein kinase C alpha type (Homo sapiens, UniProt P17252). Put plainly: Inhibition of Protein kinase C alpha.

Sequence of Proto-oncogene tyrosine-protein kinase Src (P12931 2-536 limits assumed): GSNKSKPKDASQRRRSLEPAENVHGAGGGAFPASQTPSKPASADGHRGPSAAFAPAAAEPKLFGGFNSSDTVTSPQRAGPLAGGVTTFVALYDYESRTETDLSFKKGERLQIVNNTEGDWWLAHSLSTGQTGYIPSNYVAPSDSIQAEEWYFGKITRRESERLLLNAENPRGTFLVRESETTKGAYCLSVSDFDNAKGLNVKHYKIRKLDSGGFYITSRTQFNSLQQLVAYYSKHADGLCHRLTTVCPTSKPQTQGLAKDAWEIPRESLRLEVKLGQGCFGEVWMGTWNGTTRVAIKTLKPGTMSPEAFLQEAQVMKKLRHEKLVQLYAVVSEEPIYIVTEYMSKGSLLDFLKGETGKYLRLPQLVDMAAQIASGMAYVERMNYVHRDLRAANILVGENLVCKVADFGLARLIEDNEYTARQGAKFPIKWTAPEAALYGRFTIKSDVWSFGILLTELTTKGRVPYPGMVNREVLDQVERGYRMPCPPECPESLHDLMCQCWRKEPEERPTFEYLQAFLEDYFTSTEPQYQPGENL

For orientation: pIC50 means the IC50 on a negative log10 scale, so that one unit is a factor of ten. The low end stands for a large IC50, the high end for a small IC50. For orientation: IC50 means the concentration needed to halve the response being measured. Turning to `Oc1cc(O)c2c(O)c(-c3cccc(Cl)c3)cnc2c1`, the negative logarithm of the IC50 (pIC50) is 5.10 in assay [1]; 8.10 in assay [3]; 5.70 in assay [4]; less than 5.00 in assay [5]; less than 4.00 in assay [6]. Besides, the IC50 in assay [2] is greater than 10 µM.
For `COc1cc(O)c2c(O)c(-c3cccc(Cl)c3)cnc2c1`, the pIC50 is less than 4.00 in assay [1]; 7.42 in assay [3]; 5.22 in assay [4]; less than 5.00 in assay [5]; less than 4.00 in assay [6]. The same molecule registered a half-inhibitory concentration (IC50) in assay [2] greater than 100 µM.
Consider `COc1cc(O)c2c(=O)c(-c3cccc(Cl)c3)coc2c1`, for which the pIC50 is less than 4.00 in assay [1]; 5.90 in assay [3]; less than 4.00 in assay [4]; less than 5.00 in assay [5]; less than 4.00 in assay [6]. In assay [2], this molecule registered a concentration for half-maximal inhibition (IC50) greater than 100 µM.
In assay [3], `O=c1c(-c2cccc(Cl)c2)coc2cc(O)ccc12` had a pIC50 of 4.23.
In assay [3], `Oc1c(-c2cccc(Cl)c2)cnc2ccccc12` showed a pIC50 of less than 4.00.
On to `COc1cc(O)c2c(=O)c(-c3cccc(Cl)c3)cn(CCc3ccccc3)c2c1`, for which the pIC50 in assay [3] was 5.40; in assay [4] it was 5.82; in assay [5], less than 5.00.
As for `COc1cc(O)c2c(=O)c(-c3cccc(Cl)c3)cn(C)c2c1`, the pIC50 in assay [1] was less than 5.00; in assay [3], 6.77; in assay [4] it was 5.52; in assay [5], less than 5.00; in assay [6] it was less than 4.00. In assay [2], this molecule gave an IC50 greater than 10 µM.
For the molecule `O=c1c(-c2cccc(Cl)c2)coc2cc(O)cc(O)c12`, the pIC50 is less than 4.00 in assay [1]; 7.02 in assay [3]; 4.92 in assay [4]; less than 5.00 in assay [5]; less than 4.00 in assay [6]. The same molecule returned a half-maximal inhibitory concentration (IC50) in assay [2] of 20 µM.
For the molecule `COC(=O)Cn1cc(-c2cccc(Cl)c2)c(=O)c2c(O)cc(OC)cc21`, the pIC50 in assay [1] was less than 5.00; in assay [5], less than 5.00; in assay [6], less than 4.00. In assay [2], this molecule showed an IC50 greater than 10 µM.
As to `COc1cc(OC)c2c(=O)c(-c3cccc(Cl)c3)coc2c1`, the pIC50 is 3.30 in assay [3], less than 4.00 in assay [4] and less than 5.00 in assay [5].
As to `O=c1c(-c2ccc(O)cc2)coc2cc(O)cc(O)c12` [GENISTEIN], the pIC50 in assay [1] is less than 5.00; in assay [6], less than 4.00. The same molecule yielded an IC50 in assay [2] greater than 10 µM.
With `COc1cc2ncnc(Nc3cccc(Cl)c3)c2cc1OC` [TYRPHOSTIN AG-1478], the pIC50 in assay [1] is 5.57; in assay [5], less than 5.00; in assay [6], less than 4.00.
